Data as given in paper PMC2934701 (The Journal of Biological Chemistry, 2010).
Where a chain is given by its changes, count along the chain named.

Columns and labels:
Assay in all cases: Fluo-4 calcium assay, HEK293T + Galpha16gust44
Type in all cases: cell-based
[1] = molecular target: T1, hTAS2R16 (ssr3-hTAS2R16) (Homo sapiens, UniProt Q9NYV7, W94Y)
T1 sequence (Q9NYV7 1-291 W94Y): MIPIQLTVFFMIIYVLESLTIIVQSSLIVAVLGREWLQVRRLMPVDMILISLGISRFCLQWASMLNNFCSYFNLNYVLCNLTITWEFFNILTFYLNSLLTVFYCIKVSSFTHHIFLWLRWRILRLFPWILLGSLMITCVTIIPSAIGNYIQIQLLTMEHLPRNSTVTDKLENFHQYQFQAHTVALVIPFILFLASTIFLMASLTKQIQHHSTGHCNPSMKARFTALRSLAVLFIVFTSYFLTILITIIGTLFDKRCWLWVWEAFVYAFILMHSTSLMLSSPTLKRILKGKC

[2] = molecular target: T2, hTAS2R16 (ssr3-hTAS2R16) (Homo sapiens, UniProt Q9NYV7, Q177A)
T2 sequence (Q9NYV7 1-291 Q177A): T1 sequence (Q9NYV7 1-291 W94Y) with Y94W, Q177A

[3] = molecular target: T3, hTAS2R16 (ssr3-hTAS2R16) (Homo sapiens, UniProt Q9NYV7, F240L)
T3 sequence (Q9NYV7 1-291 F240L): T1 sequence (Q9NYV7 1-291 W94Y) with Y94W, F240L

[4] = molecular target: T4, hTAS2R16 (ssr3-hTAS2R16) (Homo sapiens, UniProt Q9NYV7, E86D)
T4 sequence (Q9NYV7 1-291 E86D): T1 sequence (Q9NYV7 1-291 W94Y) with E86D, Y94W

- EC50 [1]: 1360 µM
- EC50 [2]: 550 µM
- EC50 [3]: > 30000 µM
- EC50 [4]: 2130 µM
SMILES: OCc1ccccc1O[C@@H]1O[C@H](CO)[C@@H](O)[C@H](O)[C@H]1O [salicin]
